Measured values reported in article PMC6145916, “Interaction of mitochondrial fission factor with dynamin related protein 1 governs physiological mitochondrial function in vivo” (Scientific Reports, 2018).
Where no end group is shown, it is not given here.

System: primary cortical neurons
Experiment: Mitochondrial motility, primary cortical neurons
Type: cell-based, rat
Settings: 4 µM P259, one hour
Experimental: Bottom, quantification of the form factor (degree of branching) and aspect ratio (major/minor axis length). At least 10,000 mitochondrial fragments were analyzed for each condition. Mitochondrial reactive oxygen species production (MitoSox Red) (b) and membrane potential (TMRM) (c) after overnight treatment with indicated concentrations of peptide (n = 3, with 3 replicates). […] Overlay of live microscopy imaging at time 0 (green) and 150 (red) seconds. […] An estimation of the % mobile mitochondria from the Pearson coefficient of each set of images. Data are mean ± s.e.
To quantify mitochondrial motility, the TMRM images were colored green and red at times 0 and 150 seconds, respectively. Mitochondrial motility corresponded to decreased co-localization of the two colors (Fig. 3d). […] Therefore, Mff-mediated anchoring of Drp1 on the outer mitochondrial membrane was necessary for mitochondrial motility in primary cortical neurons.
DMI6000B inverted microscope. All mitochondria were imaged with a GFP fi lter. Then, green […]
filter every 30 seconds for 5 minutes. The initial image was subtracted from each subsequent image to track signal change over time. […]
GFP filter (Keyence). […] The GFP and MitoSox signals were measured in a ring around each nucleus. Average MitoSox levels were quantified in […]
To quantify mitochondrial motility, the images at time 0 and 150 seconds w ere overlaid. […]

YGRKKRRQRRRGSGIIQLPEIVVV-NH2 (C-terminus assumed) [P259]
% mobile mitochondria (TMRM images 0 vs 150 sec, estimated from Pearson coefficient, basal approximately 37%, n = 4 control and 6 P259): ~ 22% | decline in the proportion of mobile mitochondria (vs no peptide control): 40%
